Values after ≈ are worked out from the molar mass of the structure shown.
Key:
Histone deacetylase 1 = Histone deacetylase 1 (Homo sapiens, UniProt Q13547)
Description: Inhibition of purified recombinant HDAC1

[1] = molecular target: T1, Voltage-gated inwardly rectifying potassium channel KCNH2 (Homo sapiens, UniProt Q12809); test: Inhibition of human ERG by automated patch clamp assay
[2] = Thermodynamic solubility of the compound at pH 6.8; format: physicochemical; conditions: buffer; for solubility thermodynamic: read-out: Therm_solubility
Cytochrome P450 3A4 = Cytochrome P450 3A4 (Homo sapiens, UniProt P08684)
hERG (KCNH2) = conditions: human
[3] = Half life in rat liver microsomes; format: ADME, Microsome
HCT-116 = test: cells; conditions: Homo sapiens
Description: Antiproliferative activity against human HCT116 cells

[4] = Half life in human liver microsomes; format: ADME, Microsome
[5] = molecular target: T1, Voltage-gated inwardly rectifying potassium channel KCNH2; test: Binding affinity to human ERG by radioligand binding assay

T1 sequence (Q12809 whole entry): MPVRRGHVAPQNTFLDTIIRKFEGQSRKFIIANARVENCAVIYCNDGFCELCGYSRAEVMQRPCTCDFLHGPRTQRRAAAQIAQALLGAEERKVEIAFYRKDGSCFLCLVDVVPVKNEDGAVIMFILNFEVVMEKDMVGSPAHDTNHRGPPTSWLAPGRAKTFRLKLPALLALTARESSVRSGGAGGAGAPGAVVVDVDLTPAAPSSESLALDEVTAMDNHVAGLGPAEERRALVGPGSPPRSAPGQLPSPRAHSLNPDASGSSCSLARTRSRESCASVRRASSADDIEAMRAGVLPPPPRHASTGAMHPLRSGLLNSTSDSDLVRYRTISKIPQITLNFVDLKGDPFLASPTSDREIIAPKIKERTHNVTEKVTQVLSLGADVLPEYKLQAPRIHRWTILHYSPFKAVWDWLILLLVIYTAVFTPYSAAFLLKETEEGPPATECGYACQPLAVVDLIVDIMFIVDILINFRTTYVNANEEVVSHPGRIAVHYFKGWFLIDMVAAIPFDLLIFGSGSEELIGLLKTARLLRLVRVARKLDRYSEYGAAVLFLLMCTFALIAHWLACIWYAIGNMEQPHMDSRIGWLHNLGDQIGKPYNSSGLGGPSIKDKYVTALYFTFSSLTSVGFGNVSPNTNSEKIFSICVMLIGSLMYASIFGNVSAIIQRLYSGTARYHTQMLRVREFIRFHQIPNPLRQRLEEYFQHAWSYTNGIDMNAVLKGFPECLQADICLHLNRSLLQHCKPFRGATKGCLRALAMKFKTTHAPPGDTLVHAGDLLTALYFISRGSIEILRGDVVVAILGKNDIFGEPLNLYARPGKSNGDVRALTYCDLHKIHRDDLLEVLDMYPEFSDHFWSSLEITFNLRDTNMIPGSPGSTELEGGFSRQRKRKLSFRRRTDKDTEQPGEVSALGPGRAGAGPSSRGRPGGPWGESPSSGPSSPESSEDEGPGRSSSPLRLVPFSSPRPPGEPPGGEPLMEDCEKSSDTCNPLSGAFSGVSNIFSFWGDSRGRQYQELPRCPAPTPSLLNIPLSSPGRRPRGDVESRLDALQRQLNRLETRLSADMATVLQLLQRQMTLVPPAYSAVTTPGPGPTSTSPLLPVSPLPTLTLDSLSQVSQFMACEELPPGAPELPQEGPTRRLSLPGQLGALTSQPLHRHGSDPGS
Chain of Cytochrome P450 3A4 (P08684 whole entry): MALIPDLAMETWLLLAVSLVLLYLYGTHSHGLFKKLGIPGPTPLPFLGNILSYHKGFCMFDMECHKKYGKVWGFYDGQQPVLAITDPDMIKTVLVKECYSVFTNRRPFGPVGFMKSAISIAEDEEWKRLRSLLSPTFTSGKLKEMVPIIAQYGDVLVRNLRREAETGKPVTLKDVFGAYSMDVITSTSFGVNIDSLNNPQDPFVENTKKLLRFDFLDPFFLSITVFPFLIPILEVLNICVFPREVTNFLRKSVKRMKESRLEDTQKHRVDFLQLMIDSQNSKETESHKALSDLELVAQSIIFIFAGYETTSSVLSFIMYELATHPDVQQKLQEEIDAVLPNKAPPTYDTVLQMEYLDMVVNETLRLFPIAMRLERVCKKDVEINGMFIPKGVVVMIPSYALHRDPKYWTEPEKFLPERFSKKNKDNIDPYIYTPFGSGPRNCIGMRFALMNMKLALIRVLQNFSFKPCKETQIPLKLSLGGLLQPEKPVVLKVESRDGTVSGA
Chain of Histone deacetylase 1 (Q13547 whole entry): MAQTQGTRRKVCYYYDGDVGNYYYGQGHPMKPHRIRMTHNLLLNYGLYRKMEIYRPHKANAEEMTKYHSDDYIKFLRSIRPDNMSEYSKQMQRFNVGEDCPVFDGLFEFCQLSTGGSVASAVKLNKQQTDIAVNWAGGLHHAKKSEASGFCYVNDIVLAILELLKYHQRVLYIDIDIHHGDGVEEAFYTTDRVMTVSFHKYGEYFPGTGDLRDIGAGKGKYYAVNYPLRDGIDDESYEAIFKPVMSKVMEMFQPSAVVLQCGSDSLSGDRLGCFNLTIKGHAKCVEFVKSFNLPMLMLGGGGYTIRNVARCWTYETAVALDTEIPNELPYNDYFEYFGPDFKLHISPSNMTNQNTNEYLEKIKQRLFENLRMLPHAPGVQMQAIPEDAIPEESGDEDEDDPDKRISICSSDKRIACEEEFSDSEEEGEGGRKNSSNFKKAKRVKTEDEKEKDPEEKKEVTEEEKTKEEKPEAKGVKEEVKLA

O=C(/C=C/c1ccc2c(c1)CN(S(=O)(=O)C1CC1)C2)NO
IC50 (Histone deacetylase 1): 790 nM
IC50 [1]: > 30000 nM
Therm_solubility [2]: soluble

Cc1[nH]c2ccccc2c1CCN1Cc2ccc(/C=C/C(=O)NO)cc2C1
IC50 (Cytochrome P450 3A4): > 10000 nM
selectivity ratio (hERG (KCNH2); hct-116): 114
IC50 (Histone deacetylase 1): 26 nM
half-life [3]: 2 min
IC50 [1]: 4800 nM
solubility thermodynamic [2]: 263 µM (≈ 95.1 µg/mL)
IC50 (HCT-116): 42 nM
half-life [4]: 30 min

O=C(/C=C/c1ccc2c(c1)CN(S(=O)(=O)c1ccccc1)C2)NO
IC50 (Histone deacetylase 1): 190 nM
IC50 [1]: > 30000 nM
Therm_solubility [2]: soluble
IC50 (HCT-116): 3420 nM

O=C(/C=C/c1ccc2c(c1)CN(C(=O)Cc1ccccc1)C2)NO
IC50 (Cytochrome P450 3A4): > 50000 nM
IC50 (Histone deacetylase 1): 130 nM
Therm_solubility [2]: soluble
IC50 (HCT-116): 830 nM

O=C(/C=C/c1ccc2c(c1)CN(C(=O)C1CCCC1)C2)NO
IC50 (Histone deacetylase 1): 350 nM
IC50 [1]: > 30000 nM

Nc1ccccc1NC(=O)c1ccc(CNc2nccc(-c3cccnc3)n2)cc1 [MOCETINOSTAT]
half-life [3]: 31.3 min
solubility thermodynamic [2]: 33 µM (≈ 13.1 µg/mL)
half-life [4]: 37.8 min

O=C(/C=C/c1ccc2c(c1)CN(S(=O)(=O)c1ccncc1)C2)NO
IC50 (Histone deacetylase 1): 480 nM
IC50 [1]: > 30000 nM
Therm_solubility [2]: soluble

CS(=O)(=O)N1Cc2ccc(/C=C/C(=O)NO)cc2C1
IC50 (Histone deacetylase 1): 630 nM
IC50 [1]: > 30000 nM
Therm_solubility [2]: soluble

O=C(/C=C/c1ccc2c(c1)CN(S(=O)(=O)c1ccc(C(F)(F)F)cc1)C2)NO
IC50 (Histone deacetylase 1): 160 nM
Therm_solubility [2]: soluble
IC50 (HCT-116): 2430 nM

COc1ccc(S(=O)(=O)N2Cc3ccc(/C=C/C(=O)NO)cc3C2)cc1
IC50 (Cytochrome P450 3A4): > 50000 nM
IC50 (Histone deacetylase 1): 35 nM
half-life [3]: 8.5 min
IC50 [1]: > 30000 nM
solubility thermodynamic [2]: < 5 µM
IC50 (HCT-116): 930 nM
half-life [4]: 19 min

O=C(/C=C/c1ccc2c(c1)CN(C(=O)C1CCCCC1)C2)NO
IC50 (Histone deacetylase 1): 390 nM

O=C(/C=C/c1ccc2c(c1)CN(C(=O)c1cccc(C(F)(F)F)c1)C2)NO
IC50 (Histone deacetylase 1): 200 nM
IC50 (HCT-116): 5820 nM

Cc1[nH]c2ccccc2c1CC(=O)N1Cc2ccc(/C=C/C(=O)NO)cc2C1
IC50 [5]: > 30000 nM
selectivity ratio (hERG (KCNH2); hERG assay and HCT116 cells): > 158
IC50 (Histone deacetylase 1): 20 nM
half-life [3]: 15 min
IC50 [1]: > 30000 nM
solubility thermodynamic [2]: < 20 µM
IC50 (HCT-116): 190 nM
half-life [4]: 173 min

Cc1ccc(S(=O)(=O)N2Cc3ccc(/C=C/C(=O)NO)cc3C2)cc1
IC50 (Histone deacetylase 1): 47 nM
half-life [3]: 4.1 min
IC50 [1]: > 30000 nM
solubility thermodynamic [2]: 20 µM (≈ 7.17 µg/mL)
IC50 (HCT-116): 1580 nM
half-life [4]: 11 min

O=C(/C=C/c1ccc2c(c1)CN(CCC1CCCCC1)C2)NO
IC50 (Histone deacetylase 1): 100 nM
IC50 (HCT-116): 900 nM

CCCCS(=O)(=O)N1Cc2ccc(/C=C/C(=O)NO)cc2C1
IC50 (Histone deacetylase 1): 150 nM
Therm_solubility [2]: soluble
IC50 (HCT-116): 3210 nM

O=C(/C=C/c1ccc2c(c1)CN(S(=O)(=O)c1cccnc1)C2)NO
IC50 (Histone deacetylase 1): 150 nM
IC50 [1]: > 30000 nM
Therm_solubility [2]: soluble
IC50 (HCT-116): 4260 nM

CC(C)(C)C(=O)N1Cc2ccc(/C=C/C(=O)NO)cc2C1
IC50 (Histone deacetylase 1): 420 nM
IC50 [1]: > 30000 nM

Cc1ccccc1S(=O)(=O)N1Cc2ccc(/C=C/C(=O)NO)cc2C1
IC50 (Histone deacetylase 1): 130 nM
Therm_solubility [2]: soluble
IC50 (HCT-116): 2230 nM

O=C(/C=C/c1ccc2c(c1)CN(S(=O)(=O)c1cccc(C(F)(F)F)c1)C2)NO
IC50 (Histone deacetylase 1): 160 nM
IC50 [1]: > 30000 nM
Therm_solubility [2]: soluble
IC50 (HCT-116): 2050 nM

COc1cccc(S(=O)(=O)N2Cc3ccc(/C=C/C(=O)NO)cc3C2)c1
IC50 (Histone deacetylase 1): 92 nM
IC50 [1]: > 30000 nM
Therm_solubility [2]: soluble
IC50 (HCT-116): 1130 nM

Cn1cnc(S(=O)(=O)N2Cc3ccc(/C=C/C(=O)NO)cc3C2)c1
IC50 (Histone deacetylase 1): 140 nM
IC50 [1]: > 30000 nM
Therm_solubility [2]: soluble
IC50 (HCT-116): 8840 nM

O=C(/C=C/c1ccc2c(c1)CN(Cc1ccccc1)C2)NO
IC50 (Histone deacetylase 1): 200 nM
half-life [3]: 29 min
IC50 [1]: 27500 nM
IC50 (HCT-116): 1040 nM
half-life [4]: 50 min

CC(C)(C)OC(=O)N1Cc2ccc(/C=C/C(=O)NO)cc2C1
IC50 (Histone deacetylase 1): 520 nM
half-life [3]: 14 min
IC50 [1]: > 30000 nM
solubility thermodynamic [2]: 99 µM (≈ 30.1 µg/mL)
half-life [4]: 131 min

Nc1ccccc1NC(=O)c1ccc(CNC(=O)OCc2cccnc2)cc1 [ENTINOSTAT]
IC50 (Cytochrome P450 3A4): 730 nM
half-life [3]: 405 min
solubility thermodynamic [2]: 401 µM (≈ 151 µg/mL)
half-life [4]: 405 min

O=C(CCCCCCC(=O)Nc1ccccc1)NO [VORINOSTAT]
half-life [3]: 114 min
Therm_solubility [2]: 19 µM
half-life [4]: 405 min

O=C(/C=C/c1cccc(S(=O)(=O)Nc2ccccc2)c1)NO [BELINOSTAT]
half-life [3]: 18 min
solubility thermodynamic [2]: 734 µM (≈ 234 µg/mL)
half-life [4]: 405 min

Cc1noc(-c2ccccc2)c1CCN1Cc2ccc(/C=C/C(=O)NO)cc2C1
IC50 (Histone deacetylase 1): 170 nM
half-life [3]: 6 min
solubility thermodynamic [2]: 490 µM (≈ 191 µg/mL)
IC50 (HCT-116): 2200 nM
half-life [4]: 17 min

O=C(/C=C/c1ccc2c(c1)CN(C(=O)c1cccnc1)C2)NO
IC50 (Histone deacetylase 1): 380 nM
IC50 [1]: > 30000 nM
Therm_solubility [2]: soluble

O=C(/C=C/c1ccc2c(c1)CN(CCc1c[nH]c3ccccc13)C2)NO
IC50 (Cytochrome P450 3A4): > 10000 nM
IC50 (Histone deacetylase 1): 16 nM
half-life [3]: 5 min
solubility thermodynamic [2]: 490 µM (≈ 170 µg/mL)
IC50 (HCT-116): 220 nM

O=C(/C=C/c1ccc2c(c1)CN(C(=O)C1CC1)C2)NO
IC50 (Histone deacetylase 1): 420 nM
IC50 [1]: > 30000 nM

O=C(/C=C/c1ccc2c(c1)CN(CCc1cnn3ccccc13)C2)NO
IC50 (Cytochrome P450 3A4): > 50000 nM
selectivity ratio (hERG (KCNH2); hct-116): 7.4
IC50 (Histone deacetylase 1): 78 nM
half-life [3]: 9 min
IC50 [1]: 5200 nM
solubility thermodynamic [2]: 765 µM (≈ 267 µg/mL)
IC50 (HCT-116): 530 nM
half-life [4]: 112 min

Cc1cccc(S(=O)(=O)N2Cc3ccc(/C=C/C(=O)NO)cc3C2)c1
IC50 (Histone deacetylase 1): 62 nM
half-life [3]: 7 min
IC50 [1]: > 30000 nM
solubility thermodynamic [2]: 20 µM (≈ 7.17 µg/mL)
IC50 (HCT-116): 1420 nM
half-life [4]: 15 min

O=C(/C=C/c1ccc2c(c1)CN(S(=O)(=O)Cc1ccccc1)C2)NO
IC50 (Histone deacetylase 1): 120 nM
IC50 [1]: > 30000 nM
Therm_solubility [2]: soluble
IC50 (HCT-116): 1120 nM

O=C(/C=C/c1ccc(CN(CCO)CCc2c[nH]c3ccccc23)cc1)NO [DACINOSTAT]
half-life [3]: 2.3 min
solubility thermodynamic [2]: 97 µM (≈ 36.8 µg/mL)
half-life [4]: 12 min

O=C(/C=C/c1ccc2c(c1)CN(S(=O)(=O)c1cccs1)C2)NO
IC50 (Cytochrome P450 3A4): > 50000 nM
IC50 (Histone deacetylase 1): 89 nM
solubility thermodynamic [2]: 34 µM (≈ 11.9 µg/mL)
IC50 (HCT-116): 800 nM
